Some test systems named below: CCRF-CEM leukemia; IGROV1 ovarian; NCI-H460 lung; RXF 393 renal; SF-268 CNS; SN12C renal; SNB-19 CNS; U251 CNS; CAKI-1 renal.
Common to all, as to experiment: NCI anticancer screen, dose series, 48 h

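How tested: cells in 96-well plates exposed to compound for 48 hours at five concentrations. At the GI50, growth is halved. TGI marks complete inhibition of growth.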 Bounds are passed on as bounds.

As to `CC(=O)SC(SC(C)=O)SC(C)=O`, the TGI is 81 µM in the test with CCRF-CEM leukemia; over 100 µM in the test on IGROV1 ovarian; over 100 µM in the test on NCI-H460 lung; over 100 µM with RXF 393 renal; over 100 µM with SF-268 CNS; over 100 µM in the test on SN12C renal. Besides, the TGI in the test with SNB-19 CNS and with U251 CNS was over 100 µM throughout.

For the molecule `O=C1C(=C([O-])c2ccccc2)C(=O)c2ccccc21.O=C1C(=C([O-])c2ccccc2)C(=O)c2ccccc21.[Co+2]`, the GI50 with CAKI-1 renal is 57.3 µM; in the test with CCRF-CEM leukemia, 38.6 µM; with IGROV1 ovarian, over 100 µM; in the test with SF-268 CNS, over 100 µM; in the test on SN12C renal, over 100 µM; with SNB-19 CNS, over 100 µM. For the same molecule, the GI50 in the test on U251 CNS was over 100 µM. The TGI in the test with CAKI-1 renal, with CCRF-CEM leukemia, with IGROV1 ovarian, with SF-268 CNS, with SN12C renal and with SNB-19 CNS was over 100 µM in each case. For the same molecule, the TGI with U251 CNS was over 100 µM.

Regarding `N#CC(/C(=N/NC(N)=S)C(=O)Nc1cccc(Cl)c1)c1ccccc1` (centres undefined), the TGI with CAKI-1 renal, in the test on CCRF-CEM leukemia, in the test on IGROV1 ovarian, in the test with NCI-H460 lung, with SF-268 CNS and with SN12C renal was over 100 µM throughout. Besides, the TGI with SNB-19 CNS and with U251 CNS was over 100 µM in each case.

On to `N#Cc1c2ccccc2c2nnc3ccccc3n12`, for which the GI50 was 34.8 µM in the test with CAKI-1 renal; 19.3 µM in the test with IGROV1 ovarian; 31.9 µM in the test on NCI-H460 lung; 50 µM in the test on SF-268 CNS; 41.1 µM in the test with SNB-19 CNS; 17.7 µM in the test with U251 CNS. Also, the TGI in the test on CAKI-1 renal was over 100 µM; in the test with IGROV1 ovarian, 92.2 µM; with NCI-H460 lung it was over 100 µM; in the test on SF-268 CNS it was over 100 µM; in the test with SNB-19 CNS it was over 100 µM; in the test on U251 CNS, 70 µM.

Take `NC1=NC2=C(CCCC2)C(c2cccs2)S1` (centres undefined): the TGI with CAKI-1 renal, in the test with CCRF-CEM leukemia, in the test with IGROV1 ovarian, in the test on NCI-H460 lung, in the test with RXF 393 renal and in the test with SF-268 CNS was over 100 µM throughout. Also, the TGI in the test on SN12C renal, with SNB-19 CNS and in the test on U251 CNS was over 100 µM each time.

In the case of `Cc1ccc(NC(=O)/C(=N\NC(N)=S)C(C#N)c2ccccc2C)cc1C` (centres undefined), the TGI with CAKI-1 renal, in the test on CCRF-CEM leukemia, in the test on IGROV1 ovarian, with NCI-H460 lung, in the test with SF-268 CNS and in the test on SN12C renal was over 100 µM throughout. Besides, the TGI in the test with SNB-19 CNS and in the test with U251 CNS was over 100 µM each time.

For the molecule `C=C(COC(C)=O)CC(/C=C(\C)CC/C=C(\C)CO)OC(C)=O` (centres undefined), the TGI in the test on CCRF-CEM leukemia, in the test with IGROV1 ovarian, with NCI-H460 lung, in the test with RXF 393 renal, in the test on SF-268 CNS and in the test with SN12C renal was over 100 µM throughout. Besides, the TGI in the test on SNB-19 CNS and in the test on U251 CNS was over 100 µM each time.

As to `CCCCN(CCCC)CC(C(=O)Nc1ccc([N+](=O)[O-])cc1[N+](=O)[O-])/C(C)=N\NC(=O)C[N+](C)(C)C` (centres undefined), the TGI with CAKI-1 renal, in the test on CCRF-CEM leukemia, with IGROV1 ovarian, with NCI-H460 lung, in the test on RXF 393 renal and with SF-268 CNS was over 100 µM each time. Further, the TGI with SN12C renal, with SNB-19 CNS and in the test with U251 CNS was over 100 µM throughout.

Take `CCc1cccc(CC)c1NC(=O)CC1SC(N)=NC1=O` (centres undefined): the TGI with CCRF-CEM leukemia, with IGROV1 ovarian, in the test on NCI-H460 lung, with RXF 393 renal, in the test with SF-268 CNS and with SN12C renal was over 100 µM in each case. The TGI in the test with SNB-19 CNS and in the test on U251 CNS was over 100 µM throughout.

In the case of `CC1CCC2CC1NC(=O)CCOCCC(=O)NC2(C)C` (centres undefined), the TGI in the test on CCRF-CEM leukemia, with IGROV1 ovarian, in the test on NCI-H460 lung, in the test with SF-268 CNS, in the test on SN12C renal and with SNB-19 CNS was over 100 µM throughout. In the test with U251 CNS, this molecule came in with a TGI of over 100 µM.

On to `CC1=NC=C(O)c2ccccc2O1`, for which the TGI with CCRF-CEM leukemia, in the test on IGROV1 ovarian, in the test with NCI-H460 lung, in the test with RXF 393 renal, in the test with SF-268 CNS and in the test on SN12C renal was over 100 µM each time. Further, the TGI with SNB-19 CNS and in the test on U251 CNS was over 100 µM throughout.

On to `COc1cc(C2C(C(=O)O)=C(COC(C)=O)Oc3cc4c(cc32)OCO4)cc(OC)c1OC(C)=O` (centres undefined), for which the TGI in the test with CAKI-1 renal, in the test on CCRF-CEM leukemia, in the test on IGROV1 ovarian, in the test with NCI-H460 lung, in the test with RXF 393 renal and in the test with SN12C renal was over 100 µM in each case. The TGI in the test with SNB-19 CNS and in the test with U251 CNS was over 100 µM each time.

Turning to `Cc1ccc(C(=O)N2CCCCC2)cc1N=NN(C)C`, the TGI in the test on CAKI-1 renal, in the test with CCRF-CEM leukemia, with IGROV1 ovarian, in the test on NCI-H460 lung, in the test on SF-268 CNS and with SN12C renal was over 100 µM throughout. Besides, the TGI in the test on SNB-19 CNS is over 100 µM.

As for `CC(=O)Oc1ccc(Nn2c3ccccc3c3ccccc32)c(C)c1`, the TGI with CCRF-CEM leukemia is over 100 µM; with IGROV1 ovarian, 94.2 µM; in the test with NCI-H460 lung, over 100 µM; in the test on RXF 393 renal it was 80.4 µM; with SF-268 CNS, over 100 µM; in the test with SN12C renal, over 100 µM. In addition, the TGI with SNB-19 CNS and in the test on U251 CNS was over 100 µM throughout.

As to `C=C1C(=O)c2cc3c(cc2C(c2cc(OC)c(OC)c(OC)c2)[C@@H]1C(=O)O)OCO3` (some centres undefined), the TGI with CAKI-1 renal, in the test on CCRF-CEM leukemia, in the test with IGROV1 ovarian, in the test on NCI-H460 lung, in the test with RXF 393 renal and with SN12C renal was over 100 µM each time. In the test on U251 CNS, this molecule yielded a TGI of over 100 µM.

For the origin of these results see PubChem BioAssay (NCI).
